{"source": "patent US12014835B2", "about": "“Methods for evaluating therapeutic benefit of combination therapies” (Vanderbilt University, priority 2020, dated 2024)", "assay_type_in_all_cases": "cell-based", "key": {"PC9 cells": {"system": "PC9 cells", "experiment": "MuSyC drug combination screen with osimertinib, DIP rate, high-throughput in vitro assay", "details": "for observed synergistic efficacy (βobs): at the maximum tested dose range; for synergistic efficacy (in words): drug-synergy diagram", "method": "FIG. 2A illustrates a high-throughput pipeline for generating dose-response surfaces. Initial drug matrix is prepared on a 384-well plate and transferred to cells seeded at subconfluent densities. Cells are engineered to express a fluorescently tagged histone (H2B-RFP), allowing for cell counts using automated segmentation software. Each condition is imaged every 6-8 h, resulting in growth curves. The growth curves are fit to determine the drug-induced proliferation (DIP) rate (slope of dotted line, vide infra) to quantify drug effect. This matrix of DIP rates is fit to our equation to extract synergy parameters.\nMuSyC was applied to evaluate the synergistic potency and efficacy of a 64-drug panel (see Table 1 for drugs, drug classes, nominal targets, and tested concentration ranges) in combination with osimertinib, a mutant EGFR-tyrosine kinase inhibitor recently approved for first-line treatment of EGFR-mutant NSCLC. The selected drugs span a diverse array of cellular targets that can be broadly grouped into four categories: kinases, receptors and channels, epigenetic regulators, and mitotic checkpoints, each with several sub-categories. The combinations were tested in PC9 cells, a canonical model of EGFR-mutant NSCLC using a high-throughput, in vitro, drug-screening assay (FIG. 2A).\nApplying this algorithm, synergy parameters (α1, α2, and βobs) were extracted from fitted surfaces for all osimertinib combinations (βobs is the observed synergistic efficacy at the maximum tested dose range)."}, "A2058_SKIN": {"system": "A2058_SKIN", "experiment": "BRAFi sensitivity, DIP rate", "method": "(§1) FIGS. 4A, 4B, and 4C depict data used to identify and characterize the top 200 differentially expressed genes (DEGs) between subclones of a BRAF-mutant melanoma cell line (SKMEL5) with differential sensitivity to BRAFi. FIG. 4A depicts growth curves of differentially sensitive, single-cell-derived subclones from SKMEL5 treated with 8 μM PLX4720. Gray curves represent colony growth according to the clonal fractional proliferation assay (Tyson, D. R. et al., Nature Methods (2012) Vol. 9, pp. 923-928). The average population response is indicated in the black curve. SC01, SC07, and SC10 were subsequently used to identify 200 DEGs. FIG. 4B depicts the top gene set enrichment terms for the identified 200 DEGs. FIG. 4C depicts a distribution of the correlation between the identified 200 DEGs' expression and BRAFi insensitivity. Drug sensitivity was quantified as DIP rate measured in 8 μM PLX4720. The threshold of p value <0.05 is annotated in pink.\n(§2) Specifically, gene expression was quantified using RNA sequencing (RNA-seq) and the top 200 differentially expressed genes (DEGs) (FDR<0.001) were identified. […] The correlation was computed of the 200 DEGs' expression to BRAFi sensitivity across a 10-cell-line panel using expression data from Subramanian, A. et al. (2017). in Cell vol. 171, 1437-1452.e17."}, "A375_SKIN": {"system": "A375_SKIN", "experiment": "BRAFi sensitivity, DIP rate", "method": "as §1, §2"}, "SKMEL28_SKIN": {"system": "SKMEL28_SKIN", "experiment": "BRAFi sensitivity, DIP rate", "method": "as §1, §2"}, "SKMEL5_SKIN": {"system": "SKMEL5_SKIN", "experiment": "BRAFi sensitivity, DIP rate", "method": "as §1, §2"}, "WM115_SKIN": {"system": "WM115_SKIN", "experiment": "BRAFi sensitivity, DIP rate", "method": "as §1, §2"}, "WM1799_SKIN": {"system": "WM1799_SKIN", "experiment": "BRAFi sensitivity, DIP rate", "method": "as §1, §2"}, "WM2664_SKIN": {"system": "WM2664_SKIN", "experiment": "BRAFi sensitivity, DIP rate", "method": "as §1, §2"}, "WM793_SKIN": {"system": "WM793_SKIN", "experiment": "BRAFi sensitivity, DIP rate", "method": "as §1, §2"}, "WM88_SKIN": {"system": "WM88_SKIN", "experiment": "BRAFi sensitivity, DIP rate", "method": "as §1, §2"}, "WM983B_SKIN": {"system": "WM983B_SKIN", "experiment": "BRAFi sensitivity, DIP rate", "method": "as §1, §2"}, "A2058": {"system": "A2058", "experiment": "MuSyC analysis of PLX4720 in combination with NOX5 inhibitor DPI", "details": "in combination with PLX4720, A2058 cell line", "source_text": "FIG. 4E depicts pairwise comparison between SC01 and SC10 of DEGs (FDR<0.001) identified using DESeq2 (Love, M. I. et al., Genome Biol. (2014) Vol. 15, p. 550). The 200 identified DEGs (ANOVA between three subclones) are in black. The dotted red lines denote ±4-fold change. FIG. 4F depicts the dose-response surface for PLX4270 plus DPI (a NOX5 inhibitor) in the A2058 cell line, using the same format as in FIGS. 2B and 2C.\nFIGS. 4G, 4H, and 4I depict additional MuSyC analysis of the effect of the combination therapy with PLX4270 and DPI. FIG. 4G depicts a DSD for NOX5i (DPI) plus BRAFi (PLX4720). FIG. 4H depicts the correlation (Pearson r) of NOX5 expression with observed synergistic efficacy (βobs). FIG. 4I depicts the correlation (Pearson r) of NOX5 expression with synergistic potency, where α2 is DPI's effect on PLX4720 potency. Error bars represent parameter uncertainty calculated in MCMC fitting.\nTo study NOX5's contribution to the potency or efficacy of BRAFi, PLX4720 was tested in combination with a NOX5 inhibitor, DPI, in a panel of 7 melanoma cell lines selected based on differential NOX5 expression. […] See also, Meyer et al. in Cell Systems (2010) vol 8, pages 97-108, which is hereby incorporated by reference for all purposes."}, "[1]": {"details": "in combination with osimertinib, PC9 cells"}}, "note": "pEC50: −log10 of the molar value.", "data": [{"smiles": "Cc1cc(Nc2ncc(Cl)c(Nc3ccccc3S(=O)(=O)C(C)C)n2)c(OC(C)C)cc1C1CCNCC1", "note": "[ceritinib]", "values": [{"measurement": "pEC50", "setting": "PC9 cells; Homo sapiens, PC-9, single agent, PC9 cells, DIP rate", "value": 5.69}, {"measurement": "synergistic potency log(α2): how osimertinib's potency is modulated by the drug", "setting": "PC9 cells; [1]", "value": "6.25±0.50"}, {"measurement": "observed synergistic efficacy (βobs)", "setting": "PC9 cells; [1]", "value": "0.28 ±0.003"}]}, {"smiles": "Cn1cc(CNCC2CCN(c3ncc(C(=O)NO)cn3)CC2)c2ccccc21", "note": "[quisinostat]", "values": [{"measurement": "total efficacy of the combination (in words)", "setting": "PC9 cells; in combination with osimertinib, NSCLC screen", "value": "greatest total efficacy"}]}, {"smiles": "CCCS(=O)(=O)Nc1ccc(F)c(C(=O)c2c[nH]c3ncc(Cl)cc23)c1F", "note": "[PLX4270]", "values": [{"measurement": "DIP Rate at [8 uM] PLX4270", "setting": "A2058_SKIN", "value": 0.030, "unit": "h⁻¹"}, {"measurement": "DIP Rate at [8 uM] PLX4270", "setting": "A375_SKIN", "value": 0.005, "unit": "h⁻¹"}, {"measurement": "DIP Rate at [8 uM] PLX4270", "setting": "SKMEL28_SKIN", "value": 0.010, "unit": "h⁻¹"}, {"measurement": "DIP Rate at [8 uM] PLX4270", "setting": "SKMEL5_SKIN", "value": 0.014, "unit": "h⁻¹"}, {"measurement": "DIP Rate at [8 uM] PLX4270", "setting": "WM115_SKIN", "value": 0.013, "unit": "h⁻¹"}, {"measurement": "DIP Rate at [8 uM] PLX4270", "setting": "WM1799_SKIN", "value": -0.002, "unit": "h⁻¹"}, {"measurement": "DIP Rate at [8 uM] PLX4270", "setting": "WM2664_SKIN", "value": 0.003, "unit": "h⁻¹"}, {"measurement": "DIP Rate at [8 uM] PLX4270", "setting": "WM793_SKIN", "value": 0.015, "unit": "h⁻¹"}, {"measurement": "DIP Rate at [8 uM] PLX4270", "setting": "WM88_SKIN", "value": -0.020, "unit": "h⁻¹"}, {"measurement": "DIP Rate at [8 uM] PLX4270", "setting": "WM983B_SKIN", "value": 0.021, "unit": "h⁻¹"}]}, {"smiles": "Nc1ccccc1NC(=O)c1ccc(CNC(=O)OCc2cccnc2)cc1", "note": "[entinostat]", "values": [{"measurement": "observed synergistic efficacy (βobs)", "setting": "PC9 cells; [1]", "value": "0.84±0.027"}]}, {"smiles": "COC(=O)Nc1nc2ccc(Oc3ccc(NC(=O)Nc4ccccc4)cc3)cc2[nH]1", "note": "[GW694590a]", "values": [{"measurement": "synergistic efficacy (in words)", "setting": "PC9 cells; [1]", "value": "synergistically efficacious"}]}, {"smiles": "CCCCc1oc2ccc(NS(C)(=O)=O)cc2c1C(=O)c1ccc(OCCCN(CCCC)CCCC)cc1", "note": "[dronedarone]", "values": [{"measurement": "synergistic efficacy (in words)", "setting": "PC9 cells; [1]", "value": "most antagonistic"}]}, {"smiles": "c1ccc2c(c1)[I+]c1ccccc1-2", "note": "[DPI]", "values": [{"measurement": "observed synergistic efficacy (βobs)", "setting": "A2058", "value": "1.42 ±0.05"}]}, {"smiles": "CN(C)c1ccc(C(=O)NCCCCCCC(=O)NO)cc1", "note": "[M344]", "values": [{"measurement": "increase in efficacy over osimertinib alone", "setting": "PC9 cells; [1]", "value": 125, "unit": "%"}, {"measurement": "synergistic potency log(α2): how osimertinib's potency is modulated by the drug", "setting": "PC9 cells; [1]", "value": "−0.90±0.01"}, {"measurement": "observed synergistic efficacy (βobs)", "setting": "PC9 cells; [1]", "value": "1.25±0.03"}]}, {"smiles": "CC[C@]1(O)C[C@@H]2CN(CCc3c([nH]c4ccccc34)[C@@](C(=O)OC)(c3cc4c(cc3OC)N(C)[C@H]3[C@@](O)(C(N)=O)[C@H](O)[C@]5(CC)C=CCN6CC[C@]43[C@@H]65)C2)C1", "note": "[vindesine]", "values": [{"measurement": "synergistic efficacy (in words)", "setting": "PC9 cells; [1]", "value": "upward shift along the axis of synergistic efficacy"}]}]}
